Here are results for nine molecules from US12157730B2, “Heteroaryl derivative, method for producing same, and pharmaceutical composition comprising same as effective component” (VORONOI INC., priority 2019, dated 2024).

SMILES strings stand for the structures.

In this assay the target is T1, Ba/F3 cell EGFR Exon20 ins NPH (Homo sapiens, UniProt P00533, INS773NPH).
T1 construct: expressed in transfected cells; host or cells: Ba/F3
Kind of assay: Ba/F3 cell proliferation suppression, EGFR Exon20 ins NPH. It counts as cell-based. The following applies: GI50 class; Ba/F3 cell line with NPH inserted at Exon20 of EGFR; 72 hours. In outline:
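Growth suppression determined as GI50 following 72 h exposure across 12 concentrations up to 50 um, with viability by luminescent ATP assay (CellTiter-Glo).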
`C=CC(=O)Nc1cc(Nc2cc(N3OCC[C@@H]3c3cccc(Cl)c3F)ncn2)c(OC)cc1N1CCC(N2CCN(CC)CC2)CC1` [compound 913, N-(5-((6-((R)-3-(3-chloro-2-fluorophenyl)isoxazolidine-2-yl)pyrimidine-4-yl)amino)-2-(4-(4-ethylpiperazine-1-yl)piperidine-1-yl)-4-methoxyphenyl) acrylamide]: the “Ba/F3 (NPH) Activity” value is recorded as “A (GI50 < 50 nM)”. Consider `C=CC(=O)Nc1cc(Nc2cc(N3OCC[C@@H]3Cc3cccc(F)c3)ncn2)c(OC)cc1N1CCC(N2C[C@H]3C[C@@H]2CO3)CC1` [compound 998, N-(2-(4-((1R,4R)-2-oxa-5-azabicyclo [2.2.1]heptane-5-yl)piperidine-1-yl)-5-((6-((S)-3-(3-fluorobenzyl)isoxazolidine-2-yl)pyrimidine-4-yl)amino)-4-methoxyphenyl) acrylamide], for which the “Ba/F3 (NPH) Activity” value was “A (GI50 < 50 nM)”. Regarding `C=CC(=O)Nc1cc(Nc2cc(N3OCC[C@@H]3c3cc(F)ccc3F)ncn2)c(OC)cc1N1CCC(N2CCN(C(C)C)CC2)CC1` [compound 303, N-(5-((6-((R)-3-(2,5-difluorophenyl)isoxazolidine-2-yl)pyrimidine-4-yl)amino)-2-(4-(4-isopropylpiperazine-1-yl)piperidine-1-yl)-4-methoxyphenyl) acrylamide], the “Ba/F3 (NPH) Activity” value is “A (GI50 < 50 nM)”.

Turning to `C=CC(=O)Nc1cc(Nc2cc(N3OCC[C@@H]3c3cccc(Cl)c3Cl)ncn2)c(OC)cc1N1CCN(C2CC2)[C@@H](C)C1` [compound 568, N-(2-((S)-4-cyclopropyl-3-methylpiperazine-1-yl)-5-((6-((R)-3-(2,3-dichlorophenyl)isoxazolidine-2-yl)pyrimidine-4-yl)amino)-4-methoxyphenyl) acrylamide], the “Ba/F3 (NPH) Activity” value is listed as “A (GI50 < 50 nM)”. Consider `C=CC(=O)Nc1cc(Nc2cc(N3OCC[C@@H]3c3ccc(F)c(Cl)c3F)ncn2)c(OC)cc1N1CCO[C@H](C)C1` [compound 666, N-(5-((6-((R)-3-(3-chloro-2,4-difluorophenyl)isoxazolidine-2-yl)pyrimidine-4-yl)amino)-4-methoxy-2-((R)-2-methylmorpholino)phenyl)acrylamide], for which the “Ba/F3 (NPH) Activity” value was “B (50 nM ≤ GI50 < 500 nM)”. With `C=CC(=O)Nc1cc(Nc2cc(N3OCC[C@@H]3c3cc(F)ccc3F)ncn2)c(OC)cc1N1CCN(C(C)=O)CC1` [compound 298, N-(2-(4-acetylpiperazine-1-yl)-5-((6-((R)-3-(2,5-difluorophenyl)isoxazolidine-2-yl)pyrimidine-4-yl)amino)-4-methoxyphenyl) acrylamide], the “Ba/F3 (NPH) Activity” value is recorded as “A (GI50 < 50 nM)”. Regarding `C=CC(=O)Nc1cc(Nc2cc(N3OCC[C@@H]3c3cccc4ccccc34)ncn2)c(OC)cc1N1CCC(N2CCN(C3COC3)CC2)CC1` [Example 198, N-(4-methoxy-5-((6-((R)-3-(naphthalene-1-yl)isoxazolidine-2-yl)pyrimidine-4-yl)amino)-2-(4-(4-(oxetane-3-yl)piperazine-1-yl)piperidine-1-yl)phenyl)acrylamide], the “Ba/F3 (NPH) Activity” value is listed as “A (GI50 < 50 nM)”.

For the molecule `C=CC(=O)Nc1cc(Nc2cc(N3OCC[C@@H]3c3cccc(F)c3)ncn2)c(OC)cc1N1CC[C@@H](N(C)C)C1` [Example 247, N-(2-((R)-3-(dimethylamino)pyrolidine-1-yl)-5-((6-((R)-3-(3-fluorophenyl)isoxazolidine-2-yl)pyrimidine-4-yl)amino)-4-methoxyphenyl) acrylamide], the “Ba/F3 (NPH) Activity” value is “A (GI50 < 50 nM)”. As for `C=CC(=O)Nc1cc(Nc2cc(N3OCC[C@@H]3c3ccc(F)c(F)c3)ncn2)c(OC)cc1N1CC[C@@H](N2CCOCC2)C1` [compound 578, N-(5-((6-((R)-3-(3,4-difluorophenyl)isoxazolidine-2-yl)pyrimidine-4-yl)amino)-4-methoxy-2-((R)-3-morpholinopyrolidine-1-yl)phenyl)acrylamide], the “Ba/F3 (NPH) Activity” value is listed as “B (50 nM ≤ GI50 < 500 nM)”.
